Common to all, as to format: cell-based
Data set [1] deals with HeLa-p4 cells. Put plainly: Cell viability assay (MTS) on HeLa-p4 cells. As to the method: (§1) HeLa-p4 cells are HeLa CD4 LTR-LacZ wherein LacZ expression is induced by the trans-activating protein Tat of HIV, making possible the precise quantification of HIV-1 infectivity from a single replication cycle. HeLa-CD4 cells growing exponentially at a density of 1×10^4/mL were placed in 96-well plates and infected the following day with 1 ng of HIV p24 antigen in the presence of different concentrations of compounds. The titles for a single cycle of the viruses were determined 48 hours after infection by quantifying the beta-galactosidase activity in lysates P4 by colorimetric test (CPRG, Promega) based on the cleavage of chlorophenol red-beta-D-galactopyranoside (CPRG) by beta-galactosidase. A cell viability assay measuring the absorbance at […] using the yellow tetrazolium reagent MTS [[…]] (Promega) was carried out.
(§2) For the helap4 cells experiments, the efficacy of the compounds is determined in comparison with control cells containing wild type NL4-3 virus alone (i.e. without any added compound) and is expressed as percentage of control. Then, the viral replication was increased for several compounds at the 50 and 100 μM concentrations with an absence of cytotoxic effects at the same concentrations (MTS test) (table 1).

Data set [2] concerns wild type NL4-3 virus (HIV-1) in HeLa-p4 cells. Put plainly: HeLa-p4 single-cycle HIV-1 infectivity, beta-galactosidase CPRG test. The settings on record: Human immunodeficiency virus 1, NL43, HeLaP4, 48 hours after infection, control = NL4-3 virus alone; for activity at 50 µM: read-out: Hela-p4 CPRG 50 μM; for activity at 100 µM: read-out: Hela-p4 CPRG 100 μM. The method, then: as §1, §2

Data set [3] relates to J-Lat cells. The data set is described as follows: J-Lat cells, percentage of GFP-positive cells by cytometry. The settings on record: 24 h, compound alone. The method, then: The J-Lat were grown in RPMI 1640 medium (Gibco-BRL) supplemented with 10% fetal bovine serum, 50 U/ml of penicillin, […] of streptomycin at 37 uC in a humidified 95% air/5% CO2 atmosphere. The cells were plated at 5.105 cells in a 96 well-plate. TNF ? was purchased from Immunosource. SAHA (suberoylanilide hydroxamic acid), prostratin (12-deoxyphorbol-13-acetate) and vorinostat were obtained from Sigma-Aldrich. The J-Lat cells were treated for 24 h with the different compounds alone. The cells were washed twice in PBS, re-suspended in PBS containing 4% paraformaldehyde and fixed for 30 min. Cells were next washed and re-suspended in PBS. The percentage of GFP-positive cells was measured with a LSRFortessa cytometer (Becton-Dickinson) using FACSDiva Version 6.1.3 according to the manufacturer's instructions.
The results for the J-Lat cells experiments are expressed as a percentage of the living fluorescent cells. In this model, some slight increase of viral production measured by fluorescence are quantified (table 1).

Where a name gives a salt, the structure may show the parent alone.

For the compound `N[C@@H]1C[C@H](N)CN(Cc2cccc3cnccc23)C1` [ECO02-068-C, 1-(isoquinolin-5-ylmethyl)piperidine-3,5-diamine trihydrochloride], in data set [1] (cell viability), the “Hela-p4 MTS 50 μM” value amounted to 85 and the “Hela-p4 MTS 100 μM” value worked out at 83. In data set [2], the activity at 50 µM was determined as 105% and the activity at 100 µM was found to be 137%. For the same compound, the “J-lat 50 μM” value in data set [3] is 0.4 percentage of the living fluorescent cells.

On to `CCOc1ccc(CCN2C[C@H](N)C[C@H](N)C2)cc1` [ECO02-005-C, 1-(4-ethoxyphenethyl)piperidine-3,5-diamine], for which, in data set [1] (cell viability), the “Hela-p4 MTS 50 μM” value was determined as 106 and the “Hela-p4 MTS 100 μM” value worked out at 97. Also, in data set [2], the activity at 50 µM turned out to be 127% and the activity at 100 µM stood at 195%. In data set [3], the “J-lat 50 μM” value is 0.5 percentage of the living fluorescent cells and the “J-lat 100 μM” value was 0.1 percentage of the living fluorescent cells.

Regarding `N[C@@H]1C[C@H](N)CN(C23CC4CC(CC(C4)C2)C3)C1` [AB541, 1-(adamantan-1-yl)piperidine-3,5-diamine], in data set [1] (human), the “Hela-p4 MTS 50 μM” value came out at 141 and the “Hela-p4 MTS 100 μM” value is 123. In data set [2], the activity at 50 µM is 158% and the activity at 100 µM is 157%. Further, in data set [3], the “J-lat 50 μM” value is recorded as 0.1 percentage of the living fluorescent cells and the “J-lat 100 μM” value is listed as 10.5 percentage of the living fluorescent cells.

For the compound `N[C@@H]1C[C@H](N)CN(CCCc2ccccc2)C1` [ECO01-035-C, 1-(3-phenylpropyl)piperidine-3,5-diamine], in data set [1] (cell viability), the “Hela-p4 MTS 50 μM” value came to 105 and the “Hela-p4 MTS 100 μM” value stood at 88. In data set [2], the activity at 50 µM was 169% and the activity at 100 µM is 147%. Also, in data set [3], the “J-lat 50 μM” value is recorded as 1.5 percentage of the living fluorescent cells and the “J-lat 100 μM” value was 2.8 percentage of the living fluorescent cells.

Regarding `COc1cccc(N2C[C@H](N)C[C@H](N)C2)c1` [ECO01-055-C, 1-(3-methoxyphenyl)piperidine-3,5-diamine], in data set [1] (cell viability), the “Hela-p4 MTS 50 μM” value is listed as 94 and the “Hela-p4 MTS 100 μM” value is 94. For the same compound, in data set [2], the activity at 50 µM came to 111% and the activity at 100 µM came out at 153%. In data set [3], the “J-lat 50 μM” value is listed as 0.4 percentage of the living fluorescent cells and the “J-lat 100 μM” value was 0.1 percentage of the living fluorescent cells.

Regarding `N[C@@H]1C[C@H](N)CN(CCc2ccc(O)cc2)C1` [ECO02-028-C, 4-(2-(3,5-diaminopiperidin-1-yl)ethyl)phenol], in data set [1] (cell viability), the “Hela-p4 MTS 50 μM” value came out at 100 and the “Hela-p4 MTS 100 μM” value worked out at 83. In data set [2], the activity at 50 µM was 107% and the activity at 100 µM worked out at 89%. For the same compound, in data set [3], the “J-lat 50 μM” value was 0.3 percentage of the living fluorescent cells and the “J-lat 100 μM” value is reported as 0.2 percentage of the living fluorescent cells.

Take `Cc1ccc(CCN2C[C@H](N)C[C@H](N)C2)cc1` [ECO01-029-C, 1-(4-methylphenethyl)piperidine-3,5-diamine]: in data set [1] (cell viability), the “Hela-p4 MTS 50 μM” value was 94 and the “Hela-p4 MTS 100 μM” value turned out to be 89. In data set [2], the activity at 50 µM worked out at 126% and the activity at 100 µM worked out at 109%. In data set [3], the “J-lat 50 μM” value is listed as 0.1 percentage of the living fluorescent cells and the “J-lat 100 μM” value is on record as 15.8 percentage of the living fluorescent cells.

For `N[C@@H]1C[C@H](N)CN(CCc2ccccc2)C1` [ECO02-027-C, 1-phenethylpiperidine-3,5-diamine], in data set [1] (cell viability), the “Hela-p4 MTS 50 μM” value is reported as 100 and the “Hela-p4 MTS 100 μM” value is given as 45. In data set [2], the activity at 50 µM was determined as 75% and the activity at 100 µM came out at 52%. Further, in data set [3], the “J-lat 50 μM” value is on record as 8.7 percentage of the living fluorescent cells and the “J-lat 100 μM” value was 2.3 percentage of the living fluorescent cells.

The record behind these values is patent US20170183306A1, “CYCLIC COMPOUNDS HAVING A 1,3 DIAMINO-FUNCTIONALITY FOR USE IN THE TREATMENT OF HIV INFECTION” (Universite Paris Descartes, priority 2014, published 2017).
